Assay results published in US20020166149A1, “Sustained totipotent regenerable tissue culture of Arundo donax (Giant Reed) and totipotent tissue and plants produced therefrom” (priority 2001, published 2002).

Assays:
[1] = system: A. donax explants; test: Phosphinothricin selection of explants on solid selective medium; assay type: cell-based, Arundo donax L.; details: 10 mg/l
Experimental: Cross-sectional segment of immature A. donax inflorescence were prepared and cultivated as described in Example 2. The totipotent tissue was cocultivated with Agrobacterium tumefaciens carrying plasmid pMSF3022, which carried the bar gene for positive selection in plant cells. The gene confers resistance to the antibiotic/herbicide phosphinothricin.
Cocultivation was carried out in 6 ml. of liquid primary culture medium for four days in the dark at room temperature. Explants were then rinsed with liquid medium and placed on solid selective and non-selective control medium containing the antibiotic/herbicide phosphinothricine at 10 mg/l. All medium contained tidarcillin at 400 mg/l to eliminate residual A. tumefaciens. Controls include explants incubated without A. tumefaciens. […] This can be contrasted with control explants (which were not contacted with A. tumefaciens) that were killed by 10 mg/l of phosphinothricin (FIG. 3A). Also shown are control explants that have developed callus in the absence of phosphinothricin (FIG. 3B), and cocultivated explants that have developed callus in the absence of phosphinothricin (FIG. 3D).

[2] = system: A. donax plants (roots); test: Trichloroethene challenge of cloned plants in phytoreactor; assay type: in vivo, Arundo donax L.; details: 0.25 mM in hydroponic solution; after recovery period of 3 to 4 weeks
Experimental: Sustained titopotent cultures of A donax were grown as described in Example 2, and cloned plants derived from the titopotent tissues were established in a standard liquid hydroponic solution in plastic tubs (Shown in FIG. 4A). In one phytoreactor tub, trichloroethene (trichloroethylene) was added to a concentration of 0.25 mM. This was believed to be a high concentration of the organic material, because the allowable EPA concentration is 0.005 mg/l.

| Structure (SMILES) | effect on explants cocultivated with Agrobacterium tumefaciens (bar gene) ([1]; cocultivated explants) | effect on control explants ([1]; control explants not contacted with A. tumefaciens) | state of roots after challenge [2] |
| --- | --- | --- | --- |
| CP(=O)(O)CC[C@H](N)C(=O)O [phosphinothricin] | development of herbicide resistant embryogenic tissue | killed | – |
| ClC=C(Cl)Cl [trichloroethene] | – | – | fully recovered |
